Data: US12428422B2, “Purine derivatives as SIK-3 inhibitors” (RHIZEN PHARMACEUTICALS AG, priority 2020, dated 2025)

What was measured:
Format in all cases: cell-based
TNFα mRNA = TNFα mRNA expression in LPS-stimulated mouse bone marrow derived macrophages (real-time PCR); details: LPS (1 μg/ml) stimulated mouse BMDM; 1 μM Compound M1 vs 1 μM dasatinib (FIG. 2A)
Procedure: Assay 2: Evaluation of mRNA Expression Levels of IL-10, TNFα, and Arginase-1 in LPS-Stimulated (1 μg/ml) Mouse Bone Marrow Derived Macrophages (BMDM).
Mouse-Bone Marrow Cell Isolation
• Femur bones from healthy mice were collected taking all aseptic precautions. • Bones were severed proximal to each joint using sterile scissors. • A 10 ml syringe with 25-G needle was filled with cold sterile wash medium (DMEM/F12 medium+10% FBS (fetal bovine serum)+1% Penicillin-streptomycin). • The needle was inserted into bone marrow cavity of femur and the cavity was flushed with 2-5 mL of wash medium, until the bone cavity appeared white. • Wash medium was collected in a 50 mL tube and centrifuged at 500×g for 10 minutes at room temperature. • Cells were resuspended in DMEM/F12 medium and cell count was taken. […]
Fold change in the mRNA expression was calculated by 2^−ΔΔCt method and data was plotted using GraphPad Prism.

TNFα = TNFα levels in LPS-stimulated human macrophages by ELISA; details: LPS (1 μg/mL) stimulated human macrophages, supernatant after 4 hours
Procedure: Assay 3: TNFα Levels in LPS-Stimulated (1 μg/ml) Human Macrophages Following Treatment with Compound M1 was Estimated by ELISA.
Isolation of Human PBMCs (Peripheral Blood Mononuclear Cells)
The second layer from the top, the buffy coat, was collected carefully with a serological pipette and placed in a new 50 ml centrifuge tube. The volume was made up to 50 mL with 1×PBS and centrifuged at 250×g for 10 min at room temperature. • The supernatant was discarded and red blood cells (RBCs) were resuspended with 5 mL ACK lysis buffer to facilitate RBC lysis and left at room temperature for 5 min. The tube was filled up with 1×PBS and centrifuged at 250×g for 10 min at room temperature. • The supernatant was discarded and the pellet was re-suspended in 5 mL of RPMI complete media. • Cells were counted on a haemocytometer. […] Assay Protocol • Cells were scraped and centrifuged at 250×g for 8 mins and cell concentration was determined. • 0.2×10^6 human macrophages were plated/well in a 96-well plate in RPMI CM with 50 ng/mL of Human M-CSF-1 and incubated overnight at 37° C. and 5% CO2. • Human macrophages were treated with compound M1 for 1 hour followed by addition of LPS (1 μg/mL).
Fold change was calculated, and graphs were plotted using GraphPad Prism. TNFα cytokine levels measured in LPS stimulated human macrophages supernatants were reduced by 75% following treatment with compound M1.

MDA-MB-231 cell lines = test: MTT cell growth inhibition, combination with taxol, MDA-MB-231; details: combined with taxol, 72 hrs
Procedure: Assay 6: Combination of Compound M1 with Standard Agents in Different Cell Lines
Day 0 • The cells were pelleted and counted. • Cells were plated at desired density (100 μl/well) in complete media in a 96-well plate in triplicates. A column for Day “0” reading was also seeded. (18-20 hrs after initial plating and before addition of the inhibitors) • Plates were incubated at 37° C. and 5% CO2. Day 1 • 10 μl of MTT (5 mg/ml) were added to the column designated for Day “0”. It was mixed well and incubated at 37° C. and 5% CO2 for 3.5 h. Cells were pelleted down at 4000 rpm for 10 minutes. • Media was aspirated out and 150 μl of DMSO were added to the cells and mixed by pipetting to dissolve the crystals • The plate was read at A560 nm and A640 nm. Day 2 • A series of dilutions of the inhibitors were initially made in 100% DMSO and further diluted in growth medium. • Cells were treated with either single agent of DMSO, compound M1, taxol, and a combination of compound M1 and taxol (MDA-MB-231, MCF-7, ZR.75.1 and SK-OV-3). […] Crystals were dissolved by repeated pipetting. • The plate was read at A560 nm and A640 nm. […]
Reference absorbance values were subtracted from test absorbance values. Day 0 values were subtracted from final day absorbance values for determining cell growth. % Cell growth inhibitions were calculated.

CC[C@H](Nc1ncnc2[nH]c(O)nc12)c1oc2ccccc2c(=O)c1-c1cccc(F)c1 [Compound M1, (S)-3-(3-fluorophenyl)-2-(1-((8-hydroxy-9H-purin-6-yl)amino)propyl)-4H-chromen-4-one]
TNFα mRNA expression, potency relative to dasatinib (TNFα mRNA): more potent than dasatinib
reduction of TNFα cytokine levels in supernatants (TNFα): 75%
cell growth inhibition in combination (MDA-MB-231 cell lines): synergistic results
